Reference: ChEMBL document CHEMBL1201862, “PubChem BioAssay data set” (2004)
Calls of active or inactive are those of the source. Cut-off read from the data, not from the text of the source, for most assays here: actives have a measured EC50 and inactives only a lower limit.

Key:
[1] = target: Cystic fibrosis transmembrane conductance regulator/Golgi-associated PDZ and coiled-coil motif-containing protein (Homo sapiens, UniProt P13569+Q9HD26); assay: CAL PDZ peptide-binding inhibitors, dose response, biochemical, fluorescence polarization, Cerulean-tagged CAL PDZ, cherry-picks (AID 504773)
Cystic fibrosis transmembrane conductance regulator/Golgi-associated PDZ and coiled-coil motif-containing protein, sequence (P13569 whole entry, other chains not shown, the tested form may be a part): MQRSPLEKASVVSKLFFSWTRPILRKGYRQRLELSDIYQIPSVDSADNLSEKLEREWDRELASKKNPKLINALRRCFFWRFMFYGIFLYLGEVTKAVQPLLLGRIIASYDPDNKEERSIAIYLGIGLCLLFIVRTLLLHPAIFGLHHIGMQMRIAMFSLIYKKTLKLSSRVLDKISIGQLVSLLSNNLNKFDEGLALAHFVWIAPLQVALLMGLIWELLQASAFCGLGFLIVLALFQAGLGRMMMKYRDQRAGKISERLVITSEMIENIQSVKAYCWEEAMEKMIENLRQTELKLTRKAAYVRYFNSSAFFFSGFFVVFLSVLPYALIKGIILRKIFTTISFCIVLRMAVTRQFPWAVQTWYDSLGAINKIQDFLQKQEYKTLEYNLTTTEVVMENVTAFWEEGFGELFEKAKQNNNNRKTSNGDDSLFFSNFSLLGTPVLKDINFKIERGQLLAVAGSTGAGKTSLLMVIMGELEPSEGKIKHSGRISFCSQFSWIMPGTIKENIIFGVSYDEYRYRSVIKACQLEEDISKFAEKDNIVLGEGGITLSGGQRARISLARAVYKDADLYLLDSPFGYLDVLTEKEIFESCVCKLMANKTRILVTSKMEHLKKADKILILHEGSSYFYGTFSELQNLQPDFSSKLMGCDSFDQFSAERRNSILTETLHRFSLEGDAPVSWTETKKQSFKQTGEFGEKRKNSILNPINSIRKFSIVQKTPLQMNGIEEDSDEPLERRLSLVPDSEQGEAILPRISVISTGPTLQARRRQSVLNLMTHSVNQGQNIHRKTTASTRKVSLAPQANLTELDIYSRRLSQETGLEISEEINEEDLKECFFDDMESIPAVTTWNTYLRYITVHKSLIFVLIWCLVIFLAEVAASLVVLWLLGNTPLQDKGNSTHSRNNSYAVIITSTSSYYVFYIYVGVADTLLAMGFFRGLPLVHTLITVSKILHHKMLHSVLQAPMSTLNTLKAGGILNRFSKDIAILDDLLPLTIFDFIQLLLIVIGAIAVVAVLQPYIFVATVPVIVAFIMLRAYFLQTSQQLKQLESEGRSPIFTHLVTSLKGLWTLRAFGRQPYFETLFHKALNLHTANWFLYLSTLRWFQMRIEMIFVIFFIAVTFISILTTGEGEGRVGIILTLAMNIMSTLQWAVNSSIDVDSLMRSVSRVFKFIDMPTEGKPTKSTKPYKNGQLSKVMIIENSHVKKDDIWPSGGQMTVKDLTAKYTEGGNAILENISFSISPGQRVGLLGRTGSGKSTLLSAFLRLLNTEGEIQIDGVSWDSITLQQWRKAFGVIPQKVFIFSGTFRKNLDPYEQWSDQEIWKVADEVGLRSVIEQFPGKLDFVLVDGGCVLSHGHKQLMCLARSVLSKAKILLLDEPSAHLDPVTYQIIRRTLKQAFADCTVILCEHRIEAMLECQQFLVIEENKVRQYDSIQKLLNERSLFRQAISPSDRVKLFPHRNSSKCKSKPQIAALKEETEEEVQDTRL

[2] = luciferase reporter signal reduction – luminescence, H4-C neuroglioblastoma cells, dose response (AID 2458); format: functional, cell-based;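 note: H4 neuroglioblastoma cells stably carrying a luciferase reporter gene fusion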
BJ [3] = assay: cytotoxicity toward BJ-TERT-LT-ST fibroblasts, dose response, cell-based, RAS-independent, luminescence (AID 1935); format: functional; conditions: Homo sapiens;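 note: BJ fibroblasts immortalized with TERT plus LT and ST oncogenes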
[4] = target: Mitogen-activated protein kinase 10 (Homo sapiens, UniProt P53779); assay: Dose response biochemical screening assay for inhibitors of c-Jun N-Terminal Kinase 3 (JNK3). [Related pubchem assays: 746 ]
Mitogen-activated protein kinase 10, sequence (P53779 whole entry): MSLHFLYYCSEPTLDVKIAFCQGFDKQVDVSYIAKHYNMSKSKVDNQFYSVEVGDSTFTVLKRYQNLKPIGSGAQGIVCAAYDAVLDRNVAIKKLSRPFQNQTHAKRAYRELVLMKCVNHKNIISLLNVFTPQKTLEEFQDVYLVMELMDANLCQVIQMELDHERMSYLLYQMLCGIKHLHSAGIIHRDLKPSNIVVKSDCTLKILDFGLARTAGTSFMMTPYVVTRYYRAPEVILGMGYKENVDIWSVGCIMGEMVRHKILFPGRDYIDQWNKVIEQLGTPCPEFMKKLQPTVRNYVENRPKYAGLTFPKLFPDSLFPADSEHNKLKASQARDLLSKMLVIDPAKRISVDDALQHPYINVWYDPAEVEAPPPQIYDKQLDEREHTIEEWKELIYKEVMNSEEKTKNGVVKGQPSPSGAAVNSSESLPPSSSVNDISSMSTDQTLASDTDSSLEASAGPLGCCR

[5] = cytotoxicity in HEK-293T cells, dose response, cytotoxicity control for TCR NF-kB inhibitor project, luminescence, T-cell screen hits (AID 489026); format: functional, cell-based;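 note: cells exposed to compound about 14 hours before the viability readout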
HEK293 [6] = assay: PMA/Ionomycin induced NF-kB luciferase assay in 293- NF-kB-Luc stable cells. [Related pubchem assays: 1299, 1270, 1295, 1375, 1287, 1281, 1293, 1291, 1289, 1280, 465, 1364, 1282, 1372, 1365, 1370, 1367, 1366, 1269, 1373, 1292, 1290, 1302, 1371, 1283, 1271, 1294, 1374, 1368, 1369 ]; format: functional, cell-based; conditions: Homo sapiens
[7] = target: T1, Luciferin 4-monooxygenase (Photinus pyralis, UniProt P08659); assay: firefly luciferase enzyme inhibitors, dose response, biochemical, luminescence (AID 1891)
T1 sequence (P08659 whole entry): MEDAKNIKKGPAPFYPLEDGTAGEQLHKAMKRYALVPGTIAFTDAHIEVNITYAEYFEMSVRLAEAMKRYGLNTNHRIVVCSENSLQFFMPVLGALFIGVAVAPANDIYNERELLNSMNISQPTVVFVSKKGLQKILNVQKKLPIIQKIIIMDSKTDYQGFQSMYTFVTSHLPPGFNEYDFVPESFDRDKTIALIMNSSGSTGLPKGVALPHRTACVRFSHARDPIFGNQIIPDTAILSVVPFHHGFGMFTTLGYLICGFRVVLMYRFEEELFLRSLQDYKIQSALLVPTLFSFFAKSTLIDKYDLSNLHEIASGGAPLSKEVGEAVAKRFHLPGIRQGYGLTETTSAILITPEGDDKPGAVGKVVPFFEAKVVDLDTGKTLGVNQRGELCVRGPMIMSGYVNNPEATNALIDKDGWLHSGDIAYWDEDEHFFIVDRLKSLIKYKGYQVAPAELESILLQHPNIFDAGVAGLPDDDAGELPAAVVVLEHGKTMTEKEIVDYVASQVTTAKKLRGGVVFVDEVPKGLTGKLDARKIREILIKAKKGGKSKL

HT-1080 = assay: cytotoxicity in HT1080 fibrosarcoma cells, cell-based, fluorescence readout (AID 620); format: functional; conditions: Homo sapiens
[8] = target: T1, Luciferin 4-monooxygenase; assay: Counter Screen for Luciferase-based Assay Positives. [Related pubchem assays: 620, 618, 411 ]
[9] = inhibitors of SNCA 5'UTR-driven reporter translation, confirmation, H4 neuroglioma cells, luminescence (AID 1988); format: functional, cell-based
BJ [10] = assay: cytotoxicity toward BJ-TERT fibroblasts, dose response, cell-based, RAS-independent, luminescence (AID 1933); format: functional; conditions: Homo sapiens
[11] = Luminescence Cell-Based Dose Confirmation HTS to Identify Inhibitors of Platelet Dense Granule Release. [Related pubchem assays: 1663 (Primary HTS), 1678 (Summary of Project)]; format: functional
[12] = target: T1, Luciferin 4-monooxygenase; assay: In vitro luciferase assay using purified luciferase. [Related pubchem assays: 1299, 1270, 1295, 1375, 1287, 1281, 1293, 1291, 1289, 1280, 465, 1364, 1282, 1372, 1365, 1370, 1367, 1366, 1266, 1373, 1292, 1290, 1302, 1371, 1283, 1271, 1294, 1374, 1368, 1369 ]
HEK293 [13] = assay: Cytotoxicity assay in HEK293 cells. [Related pubchem assays (depositor defined):AID1266, AID1269, AID1270, AID1271, AID1280, AID1281, AID1282, AID1283, AID1287, AID1289, AID1290, AID1291, AID1292, AID1293, AID1294, AID1295, AID1299, AID1302, AID1364, AID1365, AID1366, AID1367, AID1369, AID1370, AID1371, AID1372, AID1373, AID1374, AID1375, AID1384 …; format: functional, cell-based; conditions: Homo sapiens
BJ [14] = assay: cytotoxicity toward Ras-transformed BJeLR fibroblasts, dose response, cell-based, alamar blue fluorescence, cherrypicked samples (AID 2631); format: functional; conditions: Homo sapiens;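 note: confirmatory dose-response assay in RAS-dependent BJ fibroblasts engineered with TERT, LT and ST, with cytotoxicity read by fluorescence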
cells = format: functional, cell-based
[15] = inhibitors of firefly luciferase expression or activity, dose response, H4 neuroglioma cells, luminescence (AID 1990); format: functional, cell-based
[16] = cytotoxicity toward DRD oncogenic fibroblasts, dose response, cell-based, non-viral oncogenic, luminescence (AID 1934); format: functional; conditions: Homo sapiens
[17] = inhibitors of SNCA 5'UTR-driven translation, confirmation, luminescence, H4 neuroglioblastoma cells, dose confirmation (AID 2454); format: functional, cell-based;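 note: H4 neuroglioblastoma cells carrying an alpha-synuclein 5'UTR luciferase reporter; potency for inhibition of the luciferase signal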
[18] = target: Dual specificity protein phosphatase 3 (Homo sapiens, UniProt P51452); assay: SAR VHR1 Fluorescent Assay for In Vitro dose response studies Set 2. [Related pubchem assays (depositor defined):AID1654, AID1661, AID1878]; format: functional
Dual specificity protein phosphatase 3, sequence (P51452 whole entry): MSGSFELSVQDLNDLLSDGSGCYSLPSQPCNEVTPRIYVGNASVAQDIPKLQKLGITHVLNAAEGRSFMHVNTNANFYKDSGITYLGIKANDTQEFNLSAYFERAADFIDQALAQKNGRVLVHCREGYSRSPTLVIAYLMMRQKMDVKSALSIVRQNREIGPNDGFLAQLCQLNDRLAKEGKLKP

[19] = target: T2, Tyrosine-protein phosphatase non-receptor type 7 (Homo sapiens, UniProt P35236); assay: SAR analysis of chemical inhibitors of HePTP using a Fluorescent assay - Set 2. [Related pubchem assays (depositor defined):AID1059, AID1077, AID1661, AID2085, AID521]; format: functional
T2 sequence (P35236 whole entry): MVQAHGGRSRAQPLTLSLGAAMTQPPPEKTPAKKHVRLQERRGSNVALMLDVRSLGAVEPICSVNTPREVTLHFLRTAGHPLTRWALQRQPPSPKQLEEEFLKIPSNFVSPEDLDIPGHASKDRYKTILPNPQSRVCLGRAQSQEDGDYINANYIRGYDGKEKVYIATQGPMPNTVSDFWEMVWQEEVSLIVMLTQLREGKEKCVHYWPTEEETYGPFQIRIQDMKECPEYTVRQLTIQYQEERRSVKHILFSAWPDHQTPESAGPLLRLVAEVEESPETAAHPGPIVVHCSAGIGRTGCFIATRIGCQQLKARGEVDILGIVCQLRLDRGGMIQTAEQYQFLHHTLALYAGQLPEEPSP

Question: With `OC(c1ccccc1)(c1ccccc1)c1nccc2ccccc12` as the compound, how does the AC50 [1] read?
Answer: 44.9 µM (active)

Question: With `CCCN1C=CC(=C2C(=O)c3ccccc3C2=O)C=C1` as the compound, how does the EC50 [2] read?
Answer: 0.127 µM (active)

Question: What about the EC50 (BJ [3]) of the same compound?
Answer: 18.2 µM (active)

Question: What about the IC50 [4] of the same compound?
Answer: 9.84 µM (active)

Question: And the IC50 [5]?
Answer: > 80 µM (inactive)

Question: And the EC50 (HEK293 [6])?
Answer: 0.774 µM (active)

Question: And the EC50 [7]?
Answer: 0.719 µM (active)

Question: And the EC50 (HT-1080)?
Answer: > 50 µM (not active)

Question: What about the EC50 [8] of the same compound?
Answer: 0.98 µM (active)

Question: What about the EC50 [9] of the same compound?
Answer: < 0.1 µM (active)

Question: What about the EC50 (BJ [10]) of the same compound?
Answer: 6.69 µM (active)

Question: And the EC50 [11]?
Answer: 7.02 µM (active)

Question: And the EC50 [12]?
Answer: 1.09 µM (active)

Question: What about the EC50 (HEK293 [13]) of the same compound?
Answer: 0.589 µM (active)

Question: What about the EC50 (BJ [14]) of the same compound?
Answer: > 133 µM (inactive)

Question: What about the EC50 (cells) of the same compound?
Answer: 0.135 µM (active)

Question: And the EC50 [15]?
Answer: < 0.195 µM (active)

Question: What about the EC50 [16] of the same compound?
Answer: 6.78 µM (active)

Question: And the EC50 [17]?
Answer: 0.139 µM (active)

Question: What does the source list for `COc1cc(C(=S)NCc2ccc(C(F)(F)F)cc2)ccc1O`?
Answer: IC50 [18]: 86.9 µM (active); IC50 [19]: > 100 µM (inactive)
